# Like-named read-outs stand apart in the source and are kept apart here.
# Tests used:
# [1] = test system: cellular dehydrogenase activity; conditions: for MTT (composite Z-score): normalized score vs mock-treated (DMSO) wells
# [2] = test system: cytochrome c; format: cell-based, mouse; conditions: for cyt c (composite Z-score): normalized score vs mock-treated (DMSO) wells
# [3] = test system: nuOXPHOS transcripts; format: cell-based, mouse; conditions: for nucOX (composite Z-score): normalized score vs mock-treated (DMSO) wells
# [4] = test system: C2C12 myotubes; conditions: for Viability (composite Z-score): normalized score vs mock-treated (DMSO) wells
# [5] = test system: mtOXPHOS transcripts; format: cell-based, mouse; conditions: for mitoOX (composite Z-score): normalized score vs mock-treated (DMSO) wells
# [6] = test system: reactive oxygen species; format: cell-based, mouse; conditions: for ROS (composite Z-score): normalized score vs mock-treated (DMSO) wells
# [7] = test system: mitochondrial membrane potential; format: cell-based, mouse; conditions: for ΔΨm (composite Z-score): normalized score vs mock-treated (DMSO) wells
# [8] = test system: OXPHOS gene expression; format: cell-based, mouse; conditions: for GE-HTS (composite Z-score): normalized score vs mock-treated (DMSO) wells
# [9] = composite Z-score vs DMSO, Conc 20 μM
# [10] = normalized composite Z-score vs mock-treated (DMSO) wells, Conc 20 μM
# [11] = 20 μM, composite Z-score vs DMSO
# [12] = composite Z-score vs DMSO, Conc 8.94 μM
# [13] = composite Z-score vs mock-treated (DMSO) wells, Conc 20 μM
# [14] = composite Z-score vs DMSO wells, Conc 20 μM
structure (smiles),measurement,setting,value
C[C@@H]1O[C@@H](O[C@H]2[C@H](O[C@H]3CC[C@@]4(C)[C@@H](CC[C@]5(C)[C@@H]4CC=C4[C@@H]6CC(C)(C)CC[C@]6(C(=O)O)CC[C@]45C)[C@]3(C)CO)OC[C@H](O)[C@@H]2O)[C@H](O)[C@H](O)[C@H]1O [sapindoside A],MTT,[1]; [9],−4.558
same,cyt c,[2]; [9],−4.058
same,nucOX,[3]; [9],−1.786
same,Viability,[4]; [9],−3.886
same,mitoOX,[5]; [9],0.322
same,ROS,[6]; [9],−2.825
same,ΔΨm,[7]; [9],−3.760
same,GE-HTS,[8]; [9],−1.176
COc1ccc2c(c1)OC/C(=C\c1ccc(OC)c(O)c1)C2=O [sappanone A dimethyl ether],MTT (composite Z-score),[1]; Conc 20 μM,−1.865
same,cyt c (composite Z-score),[2]; Conc 20 μM,−0.664
same,nucOX (composite Z-score),[3]; Conc 20 μM,0.495
same,Viability (composite Z-score),[4]; Conc 20 μM,−1.045
same,mitoOX (composite Z-score),[5]; Conc 20 μM,0.248
same,ROS (composite Z-score),[6]; Conc 20 μM,−2.429
same,ΔΨm (composite Z-score),[7]; Conc 20 μM,0.017
same,GE-HTS (composite Z-score),[8]; Conc 20 μM,0.450
COc1ccc2c(c1)OC/C(=C/c1ccc(OC)c(OC)c1)C2=O [sappanone A trimethyl ether],MTT (composite Z-score),[1]; Conc 20 μM,−0.980
same,cyt c (composite Z-score),[2]; Conc 20 μM,−0.471
same,nucOX (composite Z-score),[3]; Conc 20 μM,1.458
same,Viability (composite Z-score),[4]; Conc 20 μM,−0.259
same,mitoOX (composite Z-score),[5]; Conc 20 μM,0.094
same,ROS (composite Z-score),[6]; Conc 20 μM,0.120
same,ΔΨm (composite Z-score),[7]; Conc 20 μM,−0.290
same,GE-HTS (composite Z-score),[8]; Conc 20 μM,1.090
C[C@]12CC[C@H](O)C[C@H]1CC[C@@H]1[C@@H]2[C@H](O)C[C@]2(C)[C@@H](C3=CC(=O)OC3)CC[C@]12O [sarmentogenin],MTT,[1]; [10],−0.191
same,cyt c,[2]; [10],0.614
same,nucOX,[3]; [10],0.691
same,Viability,[4]; [10],0.694
same,mitoOX,[5]; [10],0.077
same,ROS,[6]; [10],−0.151
same,ΔΨm,[7]; [10],−0.354
same,GE-HTS,[8]; [10],0.508
COc1cc2ccc(=O)oc2cc1O [scopoletin],MTT,[1],0.261
same,MTT,[1]; [11],−0.957
same,cyt c,[2],0.501
same,cyt c,[2]; [11],0.928
same,nucOX,[3],−0.513
same,nucOX,[3]; [11],0.746
same,Viability,[4],0.413
same,Viability,[4]; [11],0.675
same,mitoOX,[5],−0.291
same,mitoOX,[5]; [11],0.101
same,ROS,[6],−0.017
same,ROS,[6]; [11],0.727
same,ΔΨm,[7],0.146
same,ΔΨm,[7]; [11],−0.056
same,GE-HTS,[8],−0.462
same,GE-HTS,[8]; [11],0.543
C/C=C(/C)C(=O)O[C@H]1Cc2c(ccc3ccc(=O)oc23)OC1(C)C [selinidin],MTT (composite Z-score),[1]; Conc 20 μM,−0.359
same,cyt c (composite Z-score),[2]; Conc 20 μM,−0.478
same,nucOX (composite Z-score),[3]; Conc 20 μM,−0.328
same,Viability (composite Z-score),[4]; Conc 20 μM,0.773
same,mitoOX (composite Z-score),[5]; Conc 20 μM,−0.285
same,ROS (composite Z-score),[6]; Conc 20 μM,0.838
same,ΔΨm (composite Z-score),[7]; Conc 20 μM,0.013
same,GE-HTS (composite Z-score),[8]; Conc 20 μM,−0.347
O=C(O)c1cc(O)c2c(c1)[C@H]([C@H]1c3cc(C(=O)O)cc(O)c3C(=O)c3c(O[C@@H]4O[C@H](CO)[C@@H](O)[C@H](O)[C@H]4O)cccc31)c1cccc(O[C@@H]3O[C@H](CO)[C@@H](O)[C@H](O)[C@H]3O)c1C2=O [sennoside A],MTT,[1]; [9],−0.769
same,cyt c,[2]; [9],0.362
same,nucOX,[3]; [9],−1.093
same,Viability,[4]; [9],0.602
same,mitoOX,[5]; [9],−1.628
same,ROS,[6]; [9],0.137
same,ΔΨm,[7]; [9],−0.640
same,GE-HTS,[8]; [9],−1.374
CC(C)=CCc1c2c(c(O)c3c(=O)c(O)c(-c4ccccc4)oc13)C=CC(C)(C)O2 [sericetin],MTT,[1]; [10],−1.507
same,cyt c,[2]; [10],−0.335
same,nucOX,[3]; [10],−0.670
same,Viability,[4]; [10],−0.783
same,mitoOX,[5]; [10],−1.132
same,ROS,[6]; [10],0.124
same,ΔΨm,[7]; [10],6.788
same,GE-HTS,[8]; [10],−0.890
CN[C@H]1CC[C@@H](c2ccc(Cl)c(Cl)c2)c2ccccc21 [sertraline],MTT,[1],−1.905
same,cyt c,[2],−1.121
same,nucOX,[3],−1.476
same,Viability,[4],0.279
same,mitoOX,[5],0.020
same,ROS,[6],0.090
same,ΔΨm,[7],0.420
same,GE-HTS,[8],−1.068
COc1cc(/C=C/C(=O)O)cc(OC)c1OC [sinapic acid methyl ether],MTT,[1],−0.736
same,cyt c,[2],0.207
same,nucOX,[3],−1.058
same,Viability,[4],−0.934
same,mitoOX,[5],−1.015
same,ROS,[6],0.722
same,ΔΨm,[7],−0.716
same,GE-HTS,[8],−1.103
COC1=C[C@@H]2[C@@H]3Cc4ccc(OC)c(O)c4[C@]2(CCN3C)CC1=O [sinomenine],MTT,[1]; [9],−1.489
same,cyt c,[2]; [9],−0.117
same,nucOX,[3]; [9],−0.565
same,Viability,[4]; [9],−0.937
same,mitoOX,[5]; [9],−1.253
same,ROS,[6]; [9],0.777
same,ΔΨm,[7]; [9],−0.657
same,GE-HTS,[8]; [9],−0.875
CN[C@@H]1[C@@H](O)[C@@H](O[C@@H]2[C@@H](O)[C@H](O[C@H]3OC(CN)=CC[C@H]3N)[C@@H](N)C[C@H]2N)OC[C@]1(C)O [sisomicin],MTT,[1]; [12],−1.515
same,cyt c,[2]; [12],0.746
same,nucOX,[3]; [12],−0.337
same,Viability,[4]; [12],−0.274
same,mitoOX,[5]; [12],−0.588
same,ROS,[6]; [12],1.889
same,ΔΨm,[7]; [12],−0.962
same,GE-HTS,[8]; [12],−0.448
CC[C@H](CC[C@@H](C)[C@H]1CC[C@H]2[C@@H]3CC=C4C[C@@H](OC(C)=O)CC[C@]4(C)[C@H]3CC[C@]12C)C(C)C [sitosteryl acetate],MTT,[1]; [10],−0.775
same,cyt c,[2]; [10],−0.443
same,nucOX,[3]; [10],−0.389
same,Viability,[4]; [10],−0.827
same,mitoOX,[5]; [10],0.180
same,ROS,[6]; [10],0.930
same,ΔΨm,[7]; [10],−0.192
same,GE-HTS,[8]; [10],−0.233
O=C(O)CF [sodium fluoroacetate],MTT,[1]; [9],−1.379
same,cyt c,[2]; [9],0.653
same,nucOX,[3]; [9],0.206
same,Viability,[4]; [9],−0.906
same,mitoOX,[5]; [9],−0.459
same,ROS,[6]; [9],0.613
same,ΔΨm,[7]; [9],−0.784
same,GE-HTS,[8]; [9],−0.009
CC1=CC(=O)[C@H]2C(C)(C)CCC[C@]2(C)[C@@]1(O)CCc1ccoc1 [solidagenone],MTT,[1]; [13],0.084
same,cyt c,[2]; [13],−0.061
same,nucOX,[3]; [13],−0.023
same,Viability,[4]; [13],−0.409
same,mitoOX,[5]; [13],0.441
same,ROS,[6]; [13],1.734
same,ΔΨm,[7]; [13],−0.242
same,GE-HTS,[8]; [13],0.127
CC(=O)N[C@@H](CC(=O)N[C@@H](CCC(=O)O)C(=O)O)C(=O)O [spaglumic acid],MTT,[1]; [14],−0.779
same,cyt c,[2],0.600
same,cyt c,[2]; [14],0.191
same,nucOX,[3]; [14],0.307
same,Viability,[4]; [14],−0.009
same,mitoOX,[5]; [14],−0.284
same,ROS,[6]; [14],0.615
same,ΔΨm,[7]; [14],−0.685
same,GE-HTS,[8]; [14],0.120
COc1cc2ccc(=O)oc2c2ccoc12 [sphondin],MTT,[1]; [13],−0.661
same,cyt c,[2]; [13],0.091
same,nucOX,[3]; [13],−0.605
same,Viability,[4]; [13],−0.790
same,mitoOX,[5]; [13],−0.666
same,ROS,[6]; [13],1.692
same,ΔΨm,[7]; [13],0.136
same,GE-HTS,[8]; [13],−0.684
"CC[C@H](C=C[C@@H](C)[C@H]1CC[C@H]2[C@@H]3CCC4=CC(=O)CC[C@]4(C)[C@H]3CC[C@]12C)C(C)C [stigmasta-4,22-dien-3-one]",MTT,[1],−1.294
same,cyt c,[2],0.434
same,nucOX,[3],−0.094
same,Viability,[4],0.023
same,mitoOX,[5],−0.118
same,ROS,[6],0.550
same,ΔΨm,[7],−0.299
same,GE-HTS,[8],−0.138

# Source: patent US20090143279A1 (priority 2007, published 2009)
